Patent publication US20110195910A1, “USE OF TOCOTRIENOL COMPOSITION FOR THE PREVENTION OF CANCER” (DAVOS LIFE SCIENCE PTE. LTD., priority 2008, published 2011)

Tests used:
[1] = test system: PC-3 cells; experiment: CSC marker and signalling expression in PC-3 cells (western blotting, flow cytometry, RT-PCR); type: cell-based
Experimental: 5.1.5 Western blotting was carried out as described above under 1.1.5. The membrane was incubated with primary antibodies directed against CD133 (Miltenyi Biotec, Auburn, Calif.), Bcl-2, PARP, cleaved caspase 3, 7, 9 (Cell Signaling, Technology Inc, Beverly, Mass.), CD44 and β-actin (Santa Cruz Biotechnology, Santa Cruz, Calif.). After washing with TBS-T, the membrane was incubated with secondary antibody against either mouse or rabbit IgG and the signals were visualized using ECL plus western blotting system (Amersham, Piscataway, N.J.).
5.1.6 Semi-quantitative RT-PCR—Total RNA was isolated using TRIZOL® reagent (Invitrogen, Carlsbad, Calif.) following the manufacturer's instruction. cDNA was synthesized by using SuperScript First-Strand Synthesis System for RT (Invitrogen, Carlsbad, Calif.) and PCR was carried out with GeneAmp® PCR System 9700 (Applied Biosystems, Foster City, Calif.). The primers sequence and PCR condition for RT-PCR of CD133 were previously described. The amounts of mRNA were quantified relative to GAPDH.
5.1.8 Flow cytometry—Flow cytometry analysis of the CD44 positive cells were performed with procedure known in the art. Briefly, cells were incubated in PBS containing 2% FBS with PE-conjugated anti-human CD44 antibody. Isotype-matched mouse immunoglobulins served as controls. Samples were then analyzed using a FACS Calibur flow cytometer and CellQuest software (BD Biosciences, San Jose, Calif., USA).

[2] = test system: G361 cells; experiment: Matrigel-invasion assay, G361 cells; type: cell-based; settings: γ-T3 at IC50 and IC85
Experimental: 1.1.4 Matrigel-invasion assay—Matrigel-invasion assay was performed according to a previously published method with modifications. Briefly, cells were pre-incubated in a serum-free RPMI 1640 medium with or without γ-T3 isomers for 24 hrs. Cells (2.5×10^5) resuspended in 500 μl of serum-free RPMI 1640 containing 0.1% bovine serum albumin (BSA) were then added to the upper chamber of a 8 μm pore size insert (Millipore, Bedford, Mass.) manually coated with Matrigel (0.5 mg/ml) (BD Bioscience, Bedford, Mass.). Five hundred μl of invasion buffer containing fibronectin (10 μg/ml) and RPMI 1640 supplemented with 10% FCS were added in the lower chamber as a chemo-attractant. Cells were incubated at 37° C. for 24 hrs in 5% CO2 humidified conditions. At the end of incubation period, inserts were stained with Diff-Quick staining solution (Fischer Scientific). Non-invaded cells on the inside of the insert were scraped off with a cotton swab. Cell invasions were then examined by a phase-contrast microscope. The invaded cells were extracted using extraction buffer (Millipore, Bedford, Mass.) and the cell number was estimated based on absorbance at 595 nm.

[3] = test system: PC-3-Luc prostate cancer xenograft; experiment: PC-3-Luc prostate cancer xenograft model; type: in vivo, BALB/c athymic nude mice; settings: γ-T3 50 mg/kg/day, Docetaxel 7.5 mg/kg/week; by day 14th after start of treatment; control 620±10
Experimental: 4.1.3 Establishment of the PC-3 prostate cancer xenograft model—Bioluminescent PC-3-Luc human prostate cancer cell line were generated according to known methods. Briefly, cDNA encoding the luciferase gene was cloned into the pLenti-6/V5. The construct was co-transfected with the packaging mix into HEK293 and lentivirus were collected and used for infecting PC-3 cells. Transfectants were obtained as a pool (PC-3-Luc) by selection with 10 μg/mL of Blasticidine for 1 week. The animal experimental protocol was approved by NACLAR (National Advisory Committee for Laboratory Animal Research) Guideline of Singapore for proper and humane use of animals. Male BALB/c athymic nude mice (4-5 weeks old, 18-22 g) were purchased from The Jackson Laboratory (Bar Harbor, Me., USA). […]
Nude mice bearing similar tumor sizes of about 100 mm^3 (after 2 weeks inoculation) were selected and randomly divided into three groups (n=5 per group); control (DMSO as vehicle), γ-T3 (50 mg/kg/d) and combination treatment of γ-T3 and Docetaxel (50 mg of γ-T3/kg/d and 7.5 mg of Docetaxel/kg/wk). The mice were weighed as daily basic and the tumors were measured using a Digital Carbon Fiber Caliper (Fisher scientific, Pittsburgh, Pa.) at the same time. The tumor volume was calculated as 4/3*π*(mean diameter/2)^3. […]

[4] = Single acute toxicity test (MTD); type: in vivo, C57BL/6 black mice; settings: single dose i.p., 30-day observation
Experimental: 4.1.5 Single Acute Toxicity Test—The maximum tolerated dose (MTD) was determined by increasing doses on different groups of mice until the highest dose without any mortality is found. Briefly, ninety C57BU6 black mice (ten for each group) received single dose i.p injection containing 1, 2, 4, 8, 12, 16, 20, 30 and 40 mg of γ-T3 in 100 μl injection volume.

## CC(C)=CCC/C(C)=C/CC/C(C)=C/CCC1(C)CCc2cc(O)c(C)c(C)c2O1 (centres unmarked) [γ-T3, 7,8-dimethyltocotrienol]
[1]; 5 μg/ml, 24 hrs
  population of CD44+ PC-3 cells (flow cytometry): found to decrease
[1]; 2.5 and 5 μg/ml, 48 and 72 hrs
  CD133 mRNA level: decrease of CD133 mRNA
[1]; PC-3, 2.5 & 5 μg/ml, 24, 48 and 72 hours
  protein expression of CD44 (CD133 similar): significantly down regulated
[1]; low dose, 0 to about 5 μg/ml
  expression of AKT: downregulated
  expression of Oct3/4 and Nestin: upregulated
[2]
  invasion capability compared to untreated control: 2 -time lower
[3]
  tumor volume: 300±48 mm^3
[4]
  maximum tolerated dose (MTD): 12 mg
